Source: patent publication US8952024B2, “Herbicidal pyrimidone derivatives” (E I du Pont de Nemours and Company, priority 2009, dated 2015)

Tests used:
Assay type in all cases: in vivo
[1] = tested on: barnyardgrass (Echinochloa crus-galli); experiment: Test A pre-/postemergence plant response
Method in brief: (§1)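 Both pre- and postemergence treatments are applied simultaneously, using chemicals formulated in a non-phytotoxic solvent mixture with surfactant. Postemergence plants are 2–10 cm high with one to two leaves. After approximately ten days in a greenhouse, injury is scored visually from 0 (none) to 100 (complete control) relative to untreated plants.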

[2] = tested on: corn (Zea mays); experiment: Test A pre-/postemergence plant response
Method in brief: as §1

[3] = tested on: giant foxtail (Setaria faberii); experiment: Test A pre-/postemergence plant response
Method in brief: as §1

[4] = tested on: large crabgrass (Digitaria sanguinalis); experiment: Test A pre-/postemergence plant response
Method in brief: as §1

[5] = tested on: morningglory (Ipomoea spp.); experiment: Test A pre-/postemergence plant response
Method in brief: as §1

[6] = tested on: pigweed (Amaranthus retroflexus); experiment: Test A pre-/postemergence plant response
Method in brief: as §1

[7] = tested on: velvetleaf (Abutilon theophrasti); experiment: Test A pre-/postemergence plant response
Method in brief: as §1

[8] = tested on: wheat (Triticum aestivum); experiment: Test A pre-/postemergence plant response
Method in brief: as §1

[9] = tested on: cocklebur (Xanthium strumarium); experiment: Test B pre-/postemergence plant response
Method in brief: (§2)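 Ratings reflect visual comparison with untreated controls 13 to 15 days after application, from 0 (no effect) to 100 (complete control). Application was preemergence to seeded loam/sand soil or postemergence to 1- to 4-leaf plants, with compound in a non-phytotoxic, surfactant-containing solvent.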

[10] = tested on: giant foxtail (Setaria faberii); experiment: Test B pre-/postemergence plant response
Method in brief: as §2

[11] = tested on: green foxtail (Setaria viridis); experiment: Test B pre-/postemergence plant response
Method in brief: as §2

[12] = Postemergence, 125 g ai/ha, 0 to 100 scale where 0 is no effect and 100 is complete control
[13] = Postemergence, 500 g ai/ha, 0 to 100 scale, 0 = no effect, 100 = complete control, approx. ten days
[14] = Preemergence, 125 g ai/ha, 0 to 100 scale, 0 = no effect, 100 = complete control
[15] = Preemergence, 500 g ai/ha, visual injury, 0 to 100 scale (0 no effect, 100 complete control), approx. ten days
[16] = 31 g ai/ha, postemergence, scale 0 to 100, 0 is no effect, 100 is complete control
[17] = 62 g ai/ha, postemergence, 0 is no effect, 100 is complete control, 13 to 15 days
[18] = Postemergence, 125 g ai/ha, visual rating after 13 to 15 days, scale 0 (no effect) to 100 (complete control)
[19] = Postemergence, 250 g ai/ha, scale 0 to 100 (0 no effect, 100 complete control)
[20] = Preemergence, 31 g ai/ha, scale 0 to 100 (0 no effect, 100 complete control)
[21] = Preemergence, 62 g ai/ha, scale 0 to 100, 0 no effect, 100 complete control
[22] = Preemergence, 125 g ai/ha, scale 0 to 100, 0 no effect, 100 complete control
[23] = Preemergence, 250 g ai/ha, 0 to 100 scale
[24] = Postemergence, 125 g ai/ha, visual injury, 0 to 100 scale (0 no effect, 100 complete control), approx. ten days
[25] = 250 g ai/ha, Preemergence, 0 to 100 scale
[26] = Postemergence, 62 g ai/ha, scale 0 (no effect) to 100 (complete control), 13 to 15 days
[27] = Preemergence, 125 g ai/ha, 0 to 100 scale

## CCCCn1c(CCC)ncc(C(=O)C2=C(O)CCCC2=O)c1=O [Compound 75]
[1]; [12]
  Plant response rating, Barnyardgrass: 80
[1]; [13]
  Plant response rating, Barnyardgrass: 90
[1]; [14]
  Plant response rating, Barnyardgrass: 40
[1]; [15]
  Plant response rating, Barnyardgrass: 80
[2]; [12]
  Plant response rating, Corn: 0
[2]; [13]
  Plant response rating, Corn: 50
[2]; [14]
  Plant response rating, Corn: 0
[2]; [15]
  Plant response rating, Corn: 0
[3]; [12]
  Plant response rating, Foxtail, Giant: 80
[3]; [13]
  Plant response rating, Foxtail, Giant: 90
[3]; [14]
  Plant response rating, Foxtail, Giant: 50
[3]; [15]
  Plant response rating, Foxtail, Giant: 70
[4]; [12]
  Plant response rating, Crabgrass, Large: 90
[4]; [13]
  Plant response rating, Crabgrass, Large: 90
[4]; [14]
  Plant response rating, Crabgrass, Large: 90
[4]; [15]
  Plant response rating, Crabgrass, Large: 100
[5]; [12]
  Plant response rating, Morningglory: 90
[5]; [13]
  Plant response rating, Morningglory: 100
[5]; [14]
  Plant response rating, Morningglory: 60
[5]; [15]
  Plant response rating, Morningglory: 90
[6]; [12]
  Plant response rating, Pigweed: 100
[6]; [13]
  Plant response rating, Pigweed: 100
[6]; [14]
  Plant response rating, Pigweed: 100
[6]; [15]
  Plant response rating, Pigweed: 100
[7]; [12]
  Plant response rating, Velvetleaf: 100
[7]; [13]
  Plant response rating, Velvetleaf: 100
[7]; [14]
  Plant response rating, Velvetleaf: 90
[7]; [15]
  Plant response rating, Velvetleaf: 100
[8]; [12]
  Plant response rating, Wheat: 0
[8]; [13]
  Plant response rating, Wheat: 50
[8]; [14]
  Plant response rating, Wheat: 0
[8]; [15]
  Plant response rating, Wheat: 0
[9]; [16]
  Plant response rating, Cocklebur: 40
[9]; [17]
  Cocklebur plant response rating (0 to 100 scale): 80
[9]; [18]
  Plant response rating, Cocklebur: 95
[9]; [19]
  Plant response rating, Cocklebur: 95
[9]; [20]
  Plant response rating, Cocklebur: 10
[9]; [21]
  Plant response rating, Cocklebur: 20
[9]; [22]
  Plant response rating, Cocklebur: 75
[9]; [23]
  Cocklebur plant response rating: 90
[10]; [16]
  Plant response rating, Foxtail, Giant: 75
[10]; [17]
  Foxtail, Giant plant response rating (0 to 100 scale): 80
[10]; [18]
  Plant response rating, Foxtail, Giant: 85
[10]; [19]
  Plant response rating, Foxtail, Giant: 95
[10]; [20]
  Plant response rating, Foxtail, Giant: 0
[10]; [21]
  Plant response rating, Foxtail, Giant: 25
[10]; [22]
  Plant response rating, Foxtail, Giant: 80
[10]; [23]
  Foxtail, Giant plant response rating: 80
[11]; [16]
  Plant response rating, Foxtail, Green: 65
[11]; [17]
  Foxtail, Green plant response rating (0 to 100 scale): 85
[11]; [18]
  Plant response rating, Foxtail, Green: 90
[11]; [19]
  Plant response rating, Foxtail, Green: 90
[11]; [20]
  Plant response rating, Foxtail, Green: 5
[11]; [21]
  Plant response rating, Foxtail, Green: 50
[11]; [22]
  Plant response rating, Foxtail, Green: 50
[11]; [23]
  Foxtail, Green plant response rating: 98

## Cc1ccc(F)c(-n2c(-c3ccccc3)ncc(C(=O)C3=C(O)CCCC3=O)c2=O)c1 [Compound 51]
[1]; [24]
  Barnyardgrass plant response rating: 90
[1]; [13]
  Plant response rating, Barnyardgrass: 90
[1]; [14]
  Plant response rating, Barnyardgrass: 10
[1]; [15]
  Plant response rating, Barnyardgrass: 90
[2]; [24]
  Corn plant response rating: 0
[2]; [13]
  Plant response rating, Corn: 80
[2]; [14]
  Plant response rating, Corn: 0
[2]; [15]
  Plant response rating, Corn: 0
[3]; [24]
  Foxtail, Giant plant response rating: 90
[3]; [13]
  Plant response rating, Foxtail, Giant: 90
[3]; [14]
  Plant response rating, Foxtail, Giant: 30
[3]; [15]
  Plant response rating, Foxtail, Giant: 100
[4]; [24]
  Crabgrass, Large plant response rating: 90
[4]; [13]
  Plant response rating, Crabgrass, Large: 100
[4]; [14]
  Plant response rating, Crabgrass, Large: 30
[4]; [15]
  Plant response rating, Crabgrass, Large: 100
[5]; [24]
  Morningglory plant response rating: 100
[5]; [13]
  Plant response rating, Morningglory: 100
[5]; [15]
  Plant response rating, Morningglory: 90
[6]; [24]
  Pigweed plant response rating: 100
[6]; [13]
  Plant response rating, Pigweed: 100
[6]; [14]
  Plant response rating, Pigweed: 90
[6]; [15]
  Plant response rating, Pigweed: 100
[7]; [24]
  Velvetleaf plant response rating: 100
[7]; [13]
  Plant response rating, Velvetleaf: 100
[7]; [14]
  Plant response rating, Velvetleaf: 70
[7]; [15]
  Plant response rating, Velvetleaf: 90
[8]; [24]
  Wheat plant response rating: 0
[8]; [13]
  Plant response rating, Wheat: 0
[8]; [14]
  Plant response rating, Wheat: 0
[8]; [15]
  Plant response rating, Wheat: 0
[9]; [16]
  Plant response rating, Cocklebur: 85
[9]; [25]
  Plant response rating, Cocklebur: 75
[9]; [26]
  Plant response rating, Cocklebur: 85
[9]; [18]
  Plant response rating, Cocklebur: 90
[9]; [19]
  Plant response rating, Cocklebur: 90
[9]; [20]
  Plant response rating, Cocklebur: 0
[9]; [21]
  Plant response rating, Cocklebur: 0
[9]; [27]
  Cocklebur plant response rating: 20
[10]; [16]
  Plant response rating, Foxtail, Giant: 80
[10]; [25]
  Plant response rating, Foxtail, Giant: 75
[10]; [26]
  Plant response rating, Foxtail, Giant: 80
[10]; [18]
  Plant response rating, Foxtail, Giant: 85
[10]; [19]
  Plant response rating, Foxtail, Giant: 85
[10]; [20]
  Plant response rating, Foxtail, Giant: 0
[10]; [21]
  Plant response rating, Foxtail, Giant: 45
[10]; [27]
  Foxtail, Giant plant response rating: 50
[11]; [16]
  Plant response rating, Foxtail, Green: 85
[11]; [25]
  Plant response rating, Foxtail, Green: 100
[11]; [26]
  Plant response rating, Foxtail, Green: 95
[11]; [18]
  Plant response rating, Foxtail, Green: 95
[11]; [19]
  Plant response rating, Foxtail, Green: 100
[11]; [20]
  Plant response rating, Foxtail, Green: 50
[11]; [21]
  Plant response rating, Foxtail, Green: 50
[11]; [27]
  Foxtail, Green plant response rating: 98
